For data set [1], the system named is Salmonella typhimurium TA98, TA100, TA1535 and TA1537. Description: Bacterial mutation test, Salmonella typhimurium. To be noted: up to 5000 μg/plate, with and without S-9. Format: cell-based. The source says: These conditions included treatments at concentrations up to […] (the maximum recommended concentration according to current regulatory guidelines), in the absence and in the presence of a rat liver metabolic activation system (S-9).

Data set [2] in a line: Pharmacokinetics of 5-MeO-DMT and bufotenine after inhalation. Format: in vivo, human.

Take `COc1ccc2[nH]cc(CCN(C)C)c2c1` [5-MeO-DMT]: the Induction of mutation entry in data set [1] was “did not induce mutation”. Besides, the Detectability in plasma entry in data set [2] (3 hours after inhalation, 6-18 mg) was “no longer detectable”. Besides, the “Accumulation upon repeated administration” value in data set [2] (repeat within 1 to 4 hours) is “No accumulation”.
